Test results as given in PMC7318034, “Safety, Pharmacokinetics, and Drug-Drug Interaction Potential of Intravenous Durlobactam, a β-Lactamase Inhibitor, in Healthy Subjects” (Antimicrobial Agents and Chemotherapy, 2020).
Each block holds one molecule with its values, some of them ahead of it.

How the values were obtained:
[1] = Part C single-dose drug-drug interaction plasma PK in healthy subjects; details: for half-life / AUC(0-t) / clearance / Cmax / Vd: human, in vivo; for clearance: CL; for Vd: Vss
Procedure: (§1) The blank control matrix was made up of human plasma (BioreclamationIVT) diluted 1:1 with SigmaFast (reconstituted protease inhibitor cocktail tablet [product S8820; Sigma-Aldrich, St. Louis, MO] in 10 ml of water) for preparation of calibration standards and QC samples. […] A 100-μl aliquot of the supernatant was transferred to 96-well plates. Samples were diluted further with 400 μl of water, and 5 μl of sample was injected into the LC-MS/MS system for analysis. […] The LLOQ for all analytes was 5 ng/ml.
(§2) AUC was calculated using the log-linear trapezoidal rule.
(§3) Pharmacokinetic parameters were summarized at each assessment time point using the mean ± standard deviation (SD), the percent coefficient of variation (CV), median, minimum, and maximum. Single-ascending-dose study data were assessed for dose proportionality using Cmax and AUC, and accumulation ratios was determined using repeat-dose cohorts. […] Noncompartmental analysis of PK parameters was performed using Phoenix WinNonlin (v6.4) software to determine PK parameters.

[2] = Part D multiple-dose coadministration of DUR, SUL and IMI-CIL, plasma PK in healthy subjects; details: for AUC / Cmax / Tmax: human, in vivo; for AUC: AUC0–tau
Procedure: as §1, §2, §3

clinical = details: human, 0.5 g
[3] = Urine PK (urinary excretion, renal clearance) in healthy subjects; details: for CL renal: human, CLr
[4] = cited from earlier work
[5] = AUC0–24, part C cohort 14, DUR 1 g + IMI-CIL 0.5 g + SUL 1 g, day 8
[6] = part C cohort 14, IMI-CIL 0.5 g alone, day 3
[7] = part C cohort 14, DUR 1 g + IMI-CIL 0.5 g + SUL 1 g, day 8
[8] = part C cohort 14, DUR 1 g + IMI-CIL 0.5 g, day 5
[9] = DUR 1 g + SUL 1 g + IMI-CIL 0.5 g q6h, day 11
[10] = DUR 1 g + SUL 1 g + IMI-CIL 0.5 g q6h, day 1
[11] = DUR 1 g + SUL 1 g + IMI-CIL 0.5 g q6h, day 1, median, n=10
[12] = DUR 1 g + SUL 1 g + IMI-CIL 0.5 g q6h, day 11, median
[13] = part C cohort 14, Day 8, placebo subjects (no DUR), n=2
[14] = part D cohort 15, Day 1, DUR + SUL + IMI-CIL q6h, mean, n=10
[15] = part D cohort 15, Day 11, DUR + SUL + IMI-CIL q6h, mean, n=10
[16] = 1 g, part C cohort 13, SUL 1 g alone, day 1
[17] = part C cohort 13, DUR 1 g + SUL 1 g coadministered, day 5
[18] = part C cohort 14, SUL 1 g + IMI-CIL 0.5 g, day 8

half-life [1]: 1.2 ± 0.2 h
AUC(0-t) [1, 5]: 46900 ± 6600 ng·h/mL
AUC(0-t) ([1]; AUC0–24, part C cohort 14, DUR 1 g + IMI-CIL 0.5 g, day 5): 47100 ± 7200 ng·h/mL
AUC(0-t) ([1]; AUC0–24, part C cohort 14, IMI-CIL 0.5 g alone, day 3): 49600 ± 9800 ng·h/mL
clearance [1, 6]: 173 mL/min
Cmax [1, 7]: 40700 ± 4900 ng/mL
Cmax [1, 8]: 44000 ± 6100 ng/mL
Cmax [1, 6]: 46000 ± 8300 ng/mL
Vd [1, 7]: 10.4 ± 0.9 L
Vd [1, 8]: 9.9 ± 1.2 L
Vd [1, 6]: 9.6 ± 1.4 L
CL [1, 7]: 10.9 ± 1.6 L/h
t1/2 [1, 7]: 1.2 ± 0.2 h
CL [1, 8]: 10.8 ± 1.8 L/h
t1/2 [1, 8]: 1.2 ± 0.2 h
Accum. index [2, 9]: 1.1 ± 0.04
accumulation index ([2]; day 11 vs day 1): approximately 1
AUC [2, 10]: 45600 ± 7000 ng·h/mL
AUC [2, 9]: 39400 ± 7200 ng·h/mL
Cmax [2, 10]: 38600 ± 6000 ng/mL
Cmax [2, 9]: 38000 ± 5600 ng/mL
Tmax [2, 11]: 0.5 h
Tmax [2, 12]: 0.5 h
CL renal (clinical; in vivo): 133 mL/min
CL renal ([3]; in vivo, part C cohort 14, Day 8, placebo subjects (no DUR), n=2): 206 mL/min
CL renal ([3]; in vivo, part D cohort 15, Day 11, DUR + SUL + IMI-CIL q6h, mean): 183 mL/min
Fe [3, 13]: 120.359 (9.364) %
Fe [3, 14]: 88.376%
Fe [3, 15]: 84.834%
Molecule: CC1(C)C[C@@H]1C(=O)N/C(=C\CCCCSC[C@H](N)C(=O)O)C(=O)O [CIL, cilastatin]
Ae [3, 13]: 601.795 (46.820) mg
Ae [3, 14]: 3535.03 mg
Ae [3, 15]: 424.168 mg

AUC(0-t) ([1]; AUC0–24): 43700 ± 9200 ng·h/mL
clearance [1]: 197 mL/min
Cmax [1]: 34400 ± 5300 ng/mL
half-life ([1]; t1/2): 1.2 ± 0.1 h
CL renal (clinical; urine, intravenous): 102 mL/min
CL renal ([3]; urine, intravenous, part C cohort 14, Day 8, placebo subjects (no DUR), n=2): 70.4 mL/min
CL renal ([3]; urine, intravenous, part D cohort 15, Day 11, DUR + SUL + IMI-CIL q6h, mean): 136 mL/min
Fe [3, 13]: 36.766 (11.368) %
Fe [3, 14]: 35.1762%
Fe [3, 15]: 54.343%
Molecule: C[C@@H](O)[C@H]1C(=O)N2C(C(=O)O)=C(SCCN=CN)C[C@H]12 [IMI, imipenem, reference compound]
Ae [3, 13]: 183.832 (56.842) mg
Ae [3, 14]: 1407.051 mg
Ae [3, 15]: 271.71 mg

half-life ([1]; 1 g): 1.3 ± 0.1 h
AUC(0-t) ([1]; 1 g, AUC0–24, part C cohort 13, SUL 1 g alone, day 1): 68500 ± 4700 ng·h/mL
clearance [1, 16]: 243 mL/min
Cmax [1, 16]: 20700 ± 700 ng/mL
Vd [1, 16]: 18 ± 1.6 L
AUC(0-t) ([1]; AUC0–24, part C cohort 13, DUR 1 g + SUL 1 g coadministered, day 5): 73000 ± 6200 ng·h/mL
AUC(0-t) [1, 5]: 80600 ± 21200 ng·h/mL
AUC(0-t) ([1]; AUC0–24, part C cohort 14, SUL 1 g + IMI-CIL 0.5 g, day 8): 81700 ± 5200 ng·h/mL
clearance [1, 17]: 230 mL/min
clearance [1, 7]: 217 mL/min
clearance [1, 18]: 205 mL/min
Cmax [1, 17]: 22000 ± 2700 ng/mL
Cmax [1, 18]: 24000 ± 2000 ng/mL
Vd [1, 17]: 18.1 ± 1.7 L
Vd [1, 7]: 15.2 ± 2.7 L
Vd [1, 18]: 15.4 ± 1.5 L
t1/2 [1, 17]: 1.3 ± 0.1 h
t1/2 [1, 18]: 1.3 ± 0.1 h
AUC [2, 10]: 76700 ± 5800 ng·h/mL
AUC [2, 9]: 67900 ± 7600 ng·h/mL
Cmax [2, 10]: 23900 ± 1300 ng/mL
Cmax [2, 9]: 22400 ± 6100 ng/mL
Tmax [2, 11]: 2.7 h
Tmax [2, 12]: 2.6 h
Molecule: CC1(C)[C@H](C(=O)O)N2C(=O)C[C@H]2S1(=O)=O [SUL, Sulbactam]

Molecule: colistin
nephrotoxicity, patients affected ([4]; patients treated with colistin): ≥ 40%
mortality rate ([4]; patients with hospital-acquired or ventilator-associated pneumonia treated with colistin-based antibiotic regimens): approximately 40%
